Laboratory results from patent publication US8008506B2, “Indazole compounds” (priority 2008, dated 2011).

Tests used:
[1] = molecular target: T1, human β3 adrenergic receptor (Homo sapiens, UniProt P13945); test: Test Example 1-A: human β3 adrenergic receptor agonist activity (cAMP EIA, transfected CHO cells, 24-well); type: cell-based; settings: Table 1; maximum response to isoproterenol taken as 100%
T1 construct: the full length human β3 gene is obtained from a human genomic library; expressed in transfected cells; host or cells: CHO (Chinese Hamster Ovary) cells, pcDNA3, geneticin selection
Description: (§1) Measurement of Human β3 Adrenergic Receptor Agonist Activity
The measurement of human β3 adrenergic receptor agonist activity is carried out using CHO (Chinese Hamster Ovary) cells transfected with pcDNA3 (manufactured by Invitrogen, Inc.) to which human β3 gene has been inserted. […] This human β3 cDNA fragment is used as a probe, and the full length human β3 gene is obtained from a human genomic library (manufactured by Clontech Laboratories, Inc.). The above cells are cultured in Ham's F-12 medium containing 10% fetal bovine serum and 400 μg/ml geneticin (manufactured by Invitrogen, Inc.). These cells are seeded on a 24-well plate to a concentration of 1×10^5 cells/well, and after being cultured for about 20 hours, the cells are left to stand in serum-free Ham's F-12 medium for 2 hours. A test compound is initially dissolved in DMSO, and then is diluted stepwise with Ham's F-12 containing 20 mmol/L HEPES, 1 mmol/L isobutylmethylxanthine, and 1 mmol/L ascorbic acid. The dilution is added to the cells. After the cells are cultured for 30 minutes, and then the medium is removed, followed by addition of 0.1 ml of 1 N NaOH to the cells. The cells are left to stand for 20 minutes, and then are added with 0.1 ml of 1 N acetic acid and are stirred. The resulting cell lysate is centrifuged, and then is subjected to quantification of cAMP with cAMP EIA kit (manufactured by Cayman Chemical Co.).

[2] = tested on: urinary bladder smooth muscle isolated from common marmoset; test: Test Example 7: relaxant activity on urinary bladder smooth muscle isolated from common marmoset; settings: KCl 40 mmol/L contraction, papaverine 10^−4 mol/L relaxation taken as 100%
Description: Common marmosets are (CLEA Japan, Inc.) exsanguinated to death, and then are subjected to laparotomy to isolate the urinary bladder therefrom. […] The strips are applied a resting tension of 1 g, and are equilibrated for at least 30 minutes. After the resting tension of the strips have been equilibrated, KCl at a final concentration of 40 mmol/L is repeatedly added to the organ bath, and it is confirmed that contraction due to KCl becomes almost constant. […] When the relaxation response at the maximum concentration of the test compound is completed, papaverine at a final concentration of 10^−4 mol/L is added, and the maximum relaxation response of each strip is determined.

[3] = molecular target: T1, human β3 adrenergic receptor; test: Test Example 1-B: human β3 adrenergic receptor agonist activity (cAMP-Screen kit, transfected CHO cells, 96-well); type: cell-based; settings: Table 2; maximum response to isoproterenol taken as 100%
Description: as §1
The measurement of human β3 adrenergic receptor agonist activity is carried out using CHO (Chinese Hamster Ovary) cells transfected with pcDNA3 (manufactured by Invitrogen, Inc.) to which human β3 gene has been inserted. […] This human β3 cDNA fragment is used as a probe, and the full length human β3 gene is obtained from a human genomic library (manufactured by Clontech Laboratories, Inc.). The above cells are cultured in Ham's F-12 medium containing 10% fetal bovine serum and 400 μg/ml geneticin (manufactured by Invitrogen, Inc.). These cells are seeded on a 96-well plate to a concentration of 2×10^4 cells/well, and after being cultured for about 20 hours, the cells are left to stand in 80 μL of serum-free Ham's F-12 medium for 15 minutes. A test compound is initially dissolved in DMSO, and then is diluted stepwise with Ham's F-12 containing 100 mmol/L HEPES and 1 mmol/L isobutylmethylxanthine. 20 μL of the dilution is added to the cells. After the cells are cultured for 30 minutes, the medium is removed. 0.3. ml of the Assay/lysis Buffer included in cAMP-Screen kit (manufactured by Applied Biosystems, Inc.) is added to the cells, and the cells are incubated at 37° C. for 30 minutes. The resulting cell lysate is subjected to quantification of cAMP with the cAMP-Screen kit.

T1 sequence (P13945 whole entry): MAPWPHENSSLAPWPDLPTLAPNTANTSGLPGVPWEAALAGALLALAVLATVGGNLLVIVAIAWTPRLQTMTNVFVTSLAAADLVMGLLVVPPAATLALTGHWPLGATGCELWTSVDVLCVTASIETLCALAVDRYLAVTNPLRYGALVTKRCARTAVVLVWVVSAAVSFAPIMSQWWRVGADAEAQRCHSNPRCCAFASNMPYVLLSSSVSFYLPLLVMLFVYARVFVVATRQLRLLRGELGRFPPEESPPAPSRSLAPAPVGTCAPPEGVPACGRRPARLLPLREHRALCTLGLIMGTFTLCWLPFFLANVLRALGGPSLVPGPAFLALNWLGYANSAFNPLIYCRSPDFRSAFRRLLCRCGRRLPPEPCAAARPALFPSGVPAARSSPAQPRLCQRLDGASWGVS

- β3 receptor I.A. [1]: 100%
- β3 receptor I.A. [3]: 100%
Structure (SMILES): CC(C)NCC(O)c1ccc(O)c(O)c1 (stereo not shown) [Isoproterenol, reference compound]
- relaxant activity (%) 10^−4 M ([2]; 10^−4 M): 62.8%
- relaxant activity (%) 10^−5 M ([2]; 10^−5 M): 58.0%
